Literature values in patent EP1151755B1, “Pharmaceutical compositions comprising cyclosporin as active ingredient” (Panacea Biotec Limited, priority 2000, dated 2001).

Tested on: normal epithelial tissue and Peyer's patch tissue of guinea pigs
Settings: in vitro; compared to the commercially available drinking solution

Choleic acid
factor by which absorption of Cyclosporine was raised: 5-6
